The record followed here is PubChem BioAssay AID1159560 (GlaxoSmithKline (GSK), 2015).

The source made the active and inactive calls. No rule for the calls is given here.

The subject of the assay is Leishmania donovani growth inhibition. As to the kind of experiment: antileishmanial activity against L. donovani parasites (AID 1159560).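 Also: parasites exposed to compound for 72 h before the viability read.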
In general, IC50 refers to the concentration that inhibits the measured activity by half. Regarding `O=C(c1ccccc1)N1CCC(C(=O)N2CCC(Oc3ccccc3Cl)CC2)CC1`, the IC50 was > 50 µM (inactive).

With `COc1cccc(NS(=O)(=O)c2ccc3[nH]cc(C(=O)NCCC(C)C)c(=O)c3c2)c1`, the IC50 is > 50 µM (inactive). Regarding `CN(Cc1nc2c(C(=O)N3CCN(Cc4ccccc4)CC3)cccc2[nH]1)C1CCCc2cccnc21` (centres undefined), the IC50 was 5 µM. The value for `COc1ccc(C(=O)Nc2ccc(NC(=O)CO)cc2)cc1` was > 50 µM (inactive); that for `Cc1nc(N2CC(C)OC(C)C2)sc1C(=O)Nc1ccc2c(c1)OCO2` (centres undefined) was 6.3 µM. As for `CC(CNS(=O)(=O)c1ccc(OC(F)F)cc1)c1ccc(NC(=O)c2ccncc2)cc1` (centres undefined), the IC50 was > 50 µM (inactive). As for `O=C(Cn1cnc2cc([N+](=O)[O-])ccc2c1=O)NCCc1ccc(Cl)cc1Cl`, the IC50 is > 50 µM (inactive). The value for `COc1ccc(-c2cc(C)no2)cc1S(=O)(=O)Nc1ccc(F)c(Cl)c1` was 25 µM; that for `O=C(NCC1CCCCC1)c1cnns1` was 13 µM; that for `CN(C)c1ccc(-c2cc3nccnc3c(OC[C@H]3CCCNC3)n2)cn1` was > 50 µM (inactive).

As to `Oc1c(-c2n[nH]c(Cc3ccc(F)cc3)n2)ncc2cccnc12`, the half-maximal inhibitory concentration (IC50) was 0.13 µM.

In the case of `NC(=O)c1ncc(N[C@@H]2CCCNC2)nc1Nc1cccc(Cl)c1`, the IC50 was 2.5 µM. As for `COc1ccc(C)cc1-c1csc(NC(=O)C(C)n2ccnc2)n1` (centres undefined), the IC50 was 3.2 µM. As to `O=[N+]([O-])c1ccc(-c2nnn(-c3cccnc3)n2)o1`, the IC50 is 16 µM. The value for `CCC(=O)Nc1ccc(C(=O)Nc2ccccc2-c2ccccc2)cc1` was 10 µM. To `Cc1ccc2ccc(C(Nc3ccccn3)c3cccnc3)c(O)c2n1` (centres undefined) belongs 0.4 µM; to `Cc1cnc(Nc2cc(Cc3ccccc3)nc(NC3CCC(O)CC3)n2)s1` (centres undefined), 0.79 µM; to `CC(Cn1ccnc1)NC(=O)C=Cc1ccc(Cl)cc1` (centres undefined), > 50 µM (inactive). To `CS(=O)(=O)c1cccc(-c2cnc(N)c3c(-c4ccc(CO)cc4)csc23)c1` belongs 40 µM; to `COCCn1c(-c2ccccc2)cnc1NCc1ccccc1OC`, > 50 µM (inactive); to `NS(=O)(=O)c1ccc(CNC(=O)c2ccc([N+](=O)[O-])s2)cc1`, 32 µM.

Take `N#CN1CC[C@@H](NC(=O)Nc2ccccc2Oc2ccccc2)C1`: the IC50 was 3.2 µM.

`COc1ccc(S(=O)(=O)NCc2ccc(-c3ccc(CN(C)CCO)cc3)cc2)cc1`: the IC50 is > 50 µM (inactive). The value for `CCN(Cc1ccncc1)Cc1ccc(NC(=O)c2cc(-c3ccc(F)cc3)n[nH]2)cc1` was 16 µM. The value for `CC(C)c1cc(Nc2cc(Cc3ccccc3)nc(NC3CCC(O)CC3)n2)n[nH]1` (centres undefined) was 3.2 µM. To `N#Cc1nc(C=Cc2ccccc2)oc1NCc1cccnc1` belongs 25 µM.

Turning to `O=c1cc(CSc2ccc(Cl)cc2)nc(-c2ccccn2)[nH]1`, the IC50 was 1.6 µM. To `CC(c1ccc2c(c1)CCCC2)N(C)c1ncc2c(N)nc(N)nc2n1` (centres undefined) belongs 2.5 µM; to `O=C(Nc1cccc(Cl)c1)Nc1ccc([N+](=O)[O-])cc1Cl`, 6.3 µM; to `O=C(NCc1nnc2n1CCCCC2)c1csc(-c2ccccc2)n1`, > 50 µM (inactive).

Consider `Cc1ccc(NC(C)C(=O)Nc2ccc(C#N)cc2)cc1S(=O)(=O)N1CCCCC1` (centres undefined), for which the IC50 is 0.79 µM. The value for `CC(c1cc(Cl)cc(Cl)c1)N(C)c1ncc2c(N)nc(N)nc2n1` (centres undefined) was 0.79 µM; that for `CNS(=O)(=O)c1ccccc1Nc1nc(Nc2cc(C)nn2C)ncc1Cl` was 0.25 µM.

`Fc1ccc(OC2CC(NCc3cccc4cn[nH]c34)C2)cc1C(F)(F)F` (centres undefined): the IC50 was 20 µM. The value for `Fc1ccccc1N1C[C@H]2CCN(c3cccnc3)C[C@H]2C1` was 13 µM; that for `Clc1ccc(OCCN2CCCCC2c2cccnc2)c(Cl)c1` (centres undefined) was 5 µM. The value for `COc1ccc(C(=O)Nc2cc(C(F)(F)F)ccc2N2CCOCC2)c(OC)c1` was 5 µM. The value for `Nc1ncnc2c1ncn2[C@@H]1O[C@H](CO)C[C@H]1O` was > 50 µM (inactive). As for `c1cc(-c2ncc(-c3ccn[nH]3)s2)ccn1`, the IC50 is > 50 µM (inactive). The value for `O=C(COc1nn(-c2ccccc2)c2ncccc12)NCc1ccccc1` was 0.4 µM; that for `Cc1cccnc1CN1CCN(CCCOc2ccc(-c3ccc(C(N)=O)cc3)cc2)CC1` was > 50 µM (inactive). To `COc1ccc(C2=NCC(CSc3nnc(-c4ccc5c(c4)OCO5)o3)S2)cc1` (centres undefined) belongs 1 µM; to `c1ccc(Nc2nc(-c3ccccn3)cc(N3CCOCC3)n2)cc1`, 6.3 µM. With `Cn1ccnc1-c1nc(NCc2ccccc2Cl)cc(C2CC2)n1`, the IC50 is 1.6 µM. The value for `COCCn1c(-c2ccc3c(c2)OCO3)cnc1NCc1ccccc1OC` was 13 µM. The value for `Cc1cccc(N2CCCN(Cc3c[nH]c4ccccc34)CC2)n1` was > 50 µM (inactive). The value for `CCN(Cc1cccs1)C(=O)CSc1nnc(-c2ccc3c(c2)OCO3)o1` was 3.2 µM; that for `O=C(Nc1nccs1)c1ccccc1Cn1cc([N+](=O)[O-])cn1` was > 50 µM (inactive).

Regarding `COc1ccc(CN(C)Cc2ccncc2)cc1-c1ccc(S(=O)(=O)NC2CCC2)s1`, the IC50 was 40 µM.
